Laboratory results from PubChem BioAssay AID1996.
Converted amounts (≈) assume the structure as drawn.

Details: buffer; pH 7.4; 200.0 µM

Going from `CC(C)(C)NC(=O)CSc1nc(N)cc(=O)[nH]1` to `NS(=O)(=O)c1ccc(CNC(=O)CSc2nc3ccc(Cl)cc3[nH]2)cc1`, the solubility kinetic falls from greater than 38.4 µg/mL to 10.3 µg/mL (≈ 25.1 µM).

`COc1ccc(C(=O)OCC(=O)NCCc2ccc(F)cc2)cc1S(=O)(=O)N1CCOCC1` and `CCN(Cc1ccncc1)C(=O)c1ccc(C)c(S(=O)(=O)N2CCCCC2)c1` cannot be ordered by solubility kinetic: greater than 72.1 µg/mL for the first, greater than 60.2 µg/mL for the second.

Going from `CCCc1cnc(N2CCN(C(=O)c3ccc(OC)cc3)CC2)nc1` to `O=C(c1cccc([N+](=O)[O-])c1)N1CCN(c2ncccn2)CC1`, the solubility kinetic rises from 20.5 µg/mL (≈ 60.2 µM) to greater than 47 µg/mL.

Compared with `Cc1cn(S(=O)(=O)c2ccc(Cl)cc2)c(C)n1`, `COCc1cc(Sc2ccc(Cl)cc2)nc(C)n1` is 4.7-fold higher in solubility kinetic: 8.6 µg/mL (≈ 31.8 µM) for the first, 40.1 µg/mL (≈ 143 µM) for the second.

Compared with `COc1ccc(S(=O)(=O)n2c([N+](=O)[O-])cnc2C)cc1OC`, `COc1ccc(CNC(=O)COC(=O)c2cc3ccccc3cc2O)cc1OC` is lower in solubility kinetic: greater than 49.1 µg/mL for the first, 25.9 µg/mL (≈ 65.5 µM) for the second.

Going from `CSCC(=O)NC1CCCN(C2Cc3ccccc3C2)C1` (stereo not drawn) to `CC1CCN(CC(=O)N2c3ccccc3CC2C)CC1.Cl` (stereo not drawn), the solubility kinetic rises from 44.1 µg/mL (≈ 145 µM) to greater than 46.3 µg/mL.

Going from `Oc1ccc(C=Nc2ccc3ncccc3c2)c(O)c1` to `Cc1c2ccccc2nc2ccccc12`, the solubility kinetic falls from 30.5 µg/mL (≈ 115 µM) to 7.9 µg/mL (≈ 40.9 µM) (3.9-fold).

Compared with `CC(Oc1ccccc1)C(=O)N1CCN=C1SCc1cccc(F)c1` (stereo not drawn), `CN(C(=O)COC(=O)c1cccc(F)c1)c1ccccc1` is 2.9-fold higher in solubility kinetic: 11.1 µg/mL (≈ 31 µM) for the first, 32 µg/mL (≈ 111 µM) for the second.

First: N#C/C(=C\c1c[nH]c2ccccc12)C(=O)NC1CC1
Second: N#C/C(=C\c1ccccc1)C(=O)Nc1ccccn1
The solubility kinetic of the first is lower: 11.4 µg/mL (≈ 45.4 µM) for the first, greater than 37.4 µg/mL for the second.

Compared with `COCCNC(=O)Cc1c(C)c2c(cc(C)c3c(C(C)(C)C)coc32)oc1=O`, `CCN(C(=O)Cn1c(=O)oc2ccccc21)c1ccc(C)c(C)c1` is 3.7-fold higher in solubility kinetic: 3.2 µg/mL (≈ 8.3 µM) for the first, 11.7 µg/mL (≈ 36.1 µM) for the second.

`CCOc1ccccc1C1NC(=O)CCC1[N+](=O)[O-]` (stereo not drawn) and `CCS(=O)(=O)N1CCC(C(=O)Nc2ccccc2OC)CC1` cannot be ordered by solubility kinetic: greater than 39.6 µg/mL for the first, 43.3 µg/mL (≈ 133 µM) for the second.

`COc1ccc(C(=O)NC(C(=O)NCC2CCCO2)C(C)C)cc1` (stereo not drawn) and `O=C(CSc1nc2c(cnn2-c2ccccc2)c(=O)[nH]1)NCC1CCCO1` (stereo not drawn) cannot be ordered by solubility kinetic: greater than 50.2 µg/mL for the first, greater than 57.8 µg/mL for the second.

First: CC(=O)Oc1ccc2c(=O)c(/C=N/c3cc(=O)[nH]c(=S)[nH]3)coc2c1
Second: COc1ccc(C(C)=O)cc1Cc1c(O)[nH]c(=S)[nH]c1=O
The solubility kinetic of the first is lower: 30.6 µg/mL (≈ 85.6 µM) for the first, greater than 46 µg/mL for the second.

Going from `COC(=O)CN1C(=O)N/C(=C/c2ccc(OC)cc2)C1=O` to `COc1ccc(Cl)cc1NC(=O)CN1C(=O)NC(Cc2c[nH]c3ccccc23)C1=O` (stereo not drawn), the solubility kinetic falls from 17.4 µg/mL (≈ 59.9 µM) to 6.7 µg/mL (≈ 15.7 µM) (2.6-fold).

Compared with `Cc1cc(N2C(=O)c3ccccc3C2=O)n(C)n1`, `Cn1c(=O)c2cc3ccccc3nc2n(C)c1=O` is lower in solubility kinetic: greater than 36.2 µg/mL for the first, 4.3 µg/mL (≈ 17.8 µM) for the second.

Going from `Oc1ccccc1N1CCN(C(=S)NCc2ccccc2)CC1` to `O=C(N/C(=C\c1ccc(Cl)cc1)C(=O)N1CCCCC1)c1ccco1`, the solubility kinetic rises from 22.4 µg/mL (≈ 68.4 µM) to greater than 53.8 µg/mL.

First: CCOC(=O)c1c(C)[nH]c(NC(=O)Nc2ccc(NC(C)=O)cc2)c1C
Second: CCOC(=O)c1ccc(NC(=O)CC2SC3=NCCN3C2=O)cc1 (stereo not drawn)
The solubility kinetic of the first is lower: 22.2 µg/mL (≈ 61.9 µM) for the first, greater than 52.1 µg/mL for the second.

Going from `O=C(Nc1ccc(F)cc1)C1CCN(C(=O)c2ccc(F)cc2)CC1` to `COc1ccccc1NS(=O)(=O)c1cc(NC(=O)c2cccnc2)ccc1N1CCCCC1`, the solubility kinetic falls from greater than 51.7 µg/mL to 1.3 µg/mL (≈ 2.79 µM).

`COc1ccc(OCC(O)CN2CC(C)OC(C)C2)cc1.Cl` (stereo not drawn) and `COc1ccccc1C(C)NCC(=O)NCc1ccc(C)cc1` (stereo not drawn) cannot be ordered by solubility kinetic: greater than 49.8 µg/mL for the first, greater than 46.9 µg/mL for the second.

Compared with `CCOC(=O)N1CCN(C(=O)/C=C/c2ccc(C(C)(C)C)cc2)CC1`, `COc1cc(/C=C/C(=O)NC(=O)c2ccccc2O)ccc1O` is higher in solubility kinetic: 22.9 µg/mL (≈ 66.5 µM) for the first, greater than 47 µg/mL for the second.

`O=C(NCCNc1ccccc1[N+](=O)[O-])c1ccccc1F` and `COC(=O)c1ccccc1NC(=O)c1ccc[nH+]c1.[Cl-]` cannot be ordered by solubility kinetic: greater than 45.5 µg/mL for the first, greater than 43.9 µg/mL for the second.

First: COC(=O)c1scc(C)c1NC(=O)c1cccc(C#N)c1
Second: COC(=O)c1cc(C)nc(Sc2ccccc2NC(C)=O)n1
The solubility kinetic of the first is higher: greater than 45 µg/mL for the first, 41.6 µg/mL (≈ 131 µM) for the second.

Going from `COC(CNc1nc(SC)nc2sc3c(c12)CCN(C)C3)OC` to `Cc1c(Cl)ccc(S(=O)(=O)NCCN2CCOCC2)c1Cl`, the solubility kinetic rises from 52.4 µg/mL (≈ 148 µM) to greater than 53 µg/mL.

First: Cc1ccc(NC(=O)c2cccc(N3C(=O)C4C5C=CC(C5)C4C3=O)c2)cc1C (stereo not drawn)
Second: O=C(Nc1nc(-c2cccnc2)cs1)c1cccc([N+](=O)[O-])c1
The solubility kinetic of the first is 1.7-fold higher: 1.5 µg/mL (≈ 3.88 µM) for the first, 0.9 µg/mL (≈ 2.76 µM) for the second.

`COc1ccccc1NS(=O)(=O)c1cccc2nsnc12` and `Nc1nc(SCc2ccccc2)c2[nH]cnc2n1` are within 1.5-fold of each other in solubility kinetic: 35 µg/mL (≈ 109 µM) for the first, 38.4 µg/mL (≈ 149 µM) for the second.

Compared with `S=C(Nc1cccnc1)Nc1ccccn1`, `Cc1cc(=O)oc2cc(OCC(=O)Nc3cccnc3)ccc12` is lower in solubility kinetic: greater than 34.5 µg/mL for the first, 10.5 µg/mL (≈ 33.8 µM) for the second.

First: C=C(C)COc1ccc(-c2ncncc2-c2ccc(Cl)cc2)c(O)c1
Second: CCc1ccc(CN(C)C(=O)c2ccc3c(c2)OCCO3)cc1
The solubility kinetic of the first is lower: less than 0.4 µg/mL for the first, greater than 46.7 µg/mL for the second.

First: N/C(Cc1nc2ccccc2s1)=N\O
Second: N#Cc1c(C(F)(F)F)cc(Cc2ccccc2)nc1SCC(=O)NCC(=O)O
The solubility kinetic of the first is lower: 29.3 µg/mL (≈ 141 µM) for the first, greater than 61.4 µg/mL for the second.

`Cc1nc(N)c(CC(Br)CBr)c(Cl)n1` (stereo not drawn) and `COCCNC(=S)Nc1ccc2[nH]c(=O)[nH]c2c1` cannot be ordered by solubility kinetic: 49.1 µg/mL (≈ 143 µM) for the first, greater than 39.9 µg/mL for the second.
